Our source for the T/C values is PubChem BioAssay AID256 (DTP/NCI, 2004).

Several values for one entry are separate records, joined by “and”; a condition that tells them apart may be missing. Equal values may be shown once. Toxic doses and inconclusive results are not listed.

This assay concerns CD2F1 mice, L1210 leukemia ip, survival T/C. The experiment in a line: NCI In Vivo Anticancer Drug Screen. Data for tumor model L1210 Leukemia (intraperitoneal) in CD2F1 (CDF1) mice. Particulars: endpoint: mean survival time, higher = longer survival. The method in brief:
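Tumor-bearing mice (transplanted tumor) were split into treated and vehicle control groups, and the measured endpoint of each treated group was divided by that of its vehicle controls.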

[1] abbreviates: dose: 50.0 mg/kg/injection, schedule: Q01DX009 (ip), vehicle: saline with Tween-80.
The mark [2] stands for this setting: dose: 100.0 mg/kg/injection, schedule: Q01DX009 (ip), vehicle: saline with Tween-80.
The mark [3] stands for this setting: dose: 100.0 mg/kg/injection, schedule: Q04DX003 (ip), vehicle: saline with Tween-80.
Where [4] appears, read: dose: 200.0 mg/kg/injection, schedule: Q04DX003 (ip), vehicle: saline with Tween-80.
[5] abbreviates: dose: 400.0 mg/kg/injection, schedule: Q04DX003 (ip), vehicle: saline with Tween-80.
Setting [6] is: dose: 200.0 mg/kg/injection, schedule: Q01DX009 (ip), vehicle: saline with Tween-80.
Setting [7] is: dose: 75.0 mg/kg/injection, schedule: Q01DX001 (ip), vehicle: saline.
Where [8] appears, read: dose: 150.0 mg/kg/injection, schedule: Q01DX001 (ip), vehicle: saline.
Where [9] appears, read: dose: 300.0 mg/kg/injection, schedule: Q01DX001 (ip), vehicle: saline.

As for `CCCCCCCCCCCCNCCC#N`, the T/C (dose: 25.0 mg/kg/injection, schedule: Q01DX009 (ip), vehicle: saline with Tween-80) is 100 % of control; the T/C under setting [1] is 101 % of control; the T/C under setting [2] is 95 % of control; the T/C under setting [3] was 93 % of control; the T/C under setting [4] was 87 % of control.
As to `O=C(NO)Nc1ccccc1`, the T/C runs as follows: (dose: 8.0 mg/kg/injection, schedule: Q03HX024 (ip), vehicle: other) 101 % of control; (dose: 16.0 mg/kg/injection, schedule: Q03HX024 (ip), vehicle: other) 101 % of control; (dose: 32.0 mg/kg/injection, schedule: Q03HX024 (ip), vehicle: other) 101 % of control; (dose: 62.0 mg/kg/injection, schedule: Q03HX024 (ip), vehicle: saline with Tween-80) 89 % of control; (dose: 64.0 mg/kg/injection, schedule: Q03HX024 (ip), vehicle: other) 95 % of control; (dose: 93.0 mg/kg/injection, schedule: Q03HX024 (ip), vehicle: saline with Tween-80) 86 % of control. Moreover, under “dose: 128.0 mg/kg/injection, schedule: Q03HX024 (ip), vehicle: other”, the T/C is 92 % of control.
On to `O=C(NCc1ccccc1)C1C2CCC(C2)C1C(=O)NCc1ccccc1` (configuration not stated), for which the T/C under setting [3] was 102 % of control, the T/C under setting [4] was 102 % of control and the T/C under setting [5] is 98 % of control.
As to `O=S(=O)(O)O`, the T/C (dose: 100.0 mg/kg/injection, schedule: Q01DX009 (ip), vehicle: saline sonified) was 100 % of control; the T/C under setting [3] is 96 % of control; the T/C (dose: 200.0 mg/kg/injection, schedule: Q01DX009 (ip), vehicle: saline sonified) was 97 % of control; the T/C (dose: 400.0 mg/kg/injection, schedule: Q01DX009 (ip), vehicle: saline sonified) is 97 % of control.
On to `O=C(O)c1c2c(nc3ccccc13)Cc1ccccc1-2`, for which the T/C is 104 % of control and 109 % of control (dose: 12.5 mg/kg/injection, schedule: Q01DX009 (ip), vehicle: water); 103 % of control and 108 % of control (dose: 25.0 mg/kg/injection, schedule: Q01DX009 (ip), vehicle: water); 96 % of control under setting [1]; 105 % of control and 110 % of control (dose: 50.0 mg/kg/injection, schedule: Q01DX009 (ip), vehicle: water); 104 % of control under setting [2]; 100 % of control and 112 % of control (dose: 100.0 mg/kg/injection, schedule: Q01DX009 (ip), vehicle: water). The T/C reads like this: under setting [3], 98 % of control; under setting [6], 101 % of control; (dose: 200.0 mg/kg/injection, schedule: Q01DX009 (ip), vehicle: water) 114 % of control; under setting [4], 104 % of control.
Take `O=[N+]([O-])c1ccc2nc3ccscc-3c2c1`: the T/C (dose: 100.0 mg/kg/injection, schedule: Q01DX001 (ip), vehicle: acetone) is 100 % of control; the T/C (dose: 200.0 mg/kg/injection, schedule: Q01DX001 (ip), vehicle: acetone) was 100 % of control; the T/C (dose: 400.0 mg/kg/injection, schedule: Q01DX001 (ip), vehicle: acetone) was 92 % of control.
Consider `COc1ccc(SC2=CC(=O)c3ccccc3C2=O)cc1`, for which the T/C was 97 % of control (dose: 75.0 mg/kg/injection, schedule: Q01DX001 (ip), vehicle: other) and 95 % of control (dose: 150.0 mg/kg/injection, schedule: Q01DX001 (ip), vehicle: other).
As for `Cn1c(=O)c2c(nc(N3CCOCC3)n2CC(O)CF)n(C)c1=O` (configuration not stated), the T/C is 95 % of control (dose: 12.5 mg/kg/injection, schedule: Q01DX005 (ip), vehicle: distilled water + Tween-80); 98 % of control (dose: 25.0 mg/kg/injection, schedule: Q01DX005 (ip), vehicle: distilled water + Tween-80); 103 % of control (dose: 50.0 mg/kg/injection, schedule: Q01DX005 (ip), vehicle: distilled water + Tween-80); 97 % of control (dose: 100.0 mg/kg/injection, schedule: Q01DX005 (ip), vehicle: distilled water + Tween-80); 104 % of control (dose: 200.0 mg/kg/injection, schedule: Q01DX005 (ip), vehicle: distilled water + Tween-80).
Take `O=C(O)C(O)C(O)C(=O)O.[NH-]C1CCCCCC1[NH-].[Pt+2]` (configuration not stated): the T/C was 123 % of control (dose: 2.5 mg/kg/injection, schedule: Q04DX003 (ip), vehicle: dextrose); 153 % of control (dose: 5.0 mg/kg/injection, schedule: Q04DX003 (ip), vehicle: dextrose); 152 % of control and 273 % of control (dose: 20.0 mg/kg/injection, schedule: Q04DX003 (ip), vehicle: dextrose).
As to `Nc1nc2nc(CBr)c(CBr)nc2c(=O)[nH]1`, under setting [6], the T/C is 101 % of control.
For `NNc1ccccc1-c1nc2ccccc2[nH]1`, the T/C is 96 % of control under setting [7], 96 % of control under setting [8] and 108 % of control under setting [9].
Consider `COc1cccc(CCNC(=O)CC#N)c1`, for which the T/C is, setting by setting: under setting [2], 97 % of control; under setting [6], 98 % of control; (dose: 400.0 mg/kg/injection, schedule: Q01DX009 (ip), vehicle: saline with Tween-80) 101 % of control.
Consider `Cc1ccc(NC(=O)C2CCC(C)(C(=O)O)C2(C)C)cc1` (configuration not stated), for which the T/C under setting [3] was 96 % of control and the T/C under setting [4] is 91 % of control.
In the case of `Nc1nc(NC2OC(CO)C(O)C2O)c2nnsc2n1` (configuration not stated), the T/C under setting [7] is 96 % of control, the T/C under setting [8] is 100 % of control and the T/C under setting [9] is 88 % of control.
Take `CCOC(=O)c1cnc(SC)nc1NCc1cccc(C)c1`: the T/C was 98 % of control (dose: 100.0 mg/kg/injection, schedule: Q01DX001 (ip), vehicle: saline with Tween-80); 96 % of control (dose: 200.0 mg/kg/injection, schedule: Q01DX001 (ip), vehicle: saline with Tween-80); 91 % of control (dose: 400.0 mg/kg/injection, schedule: Q01DX001 (ip), vehicle: saline with Tween-80).
`OC(CS)C(c1ccccc1)c1ccccc1` (configuration not stated): the T/C by setting is: under setting [3], 98 % of control; under setting [4], 93 % of control; under setting [5], 96 % of control.
As to `S=C([S-])N1CCCCC1.S=C([S-])N1CCCCC1.[Zn]`, the T/C (dose: 18.8 mg/kg/injection, schedule: Q01DX009 (ip), vehicle: saline) is 93 % of control and the T/C (dose: 37.5 mg/kg/injection, schedule: Q01DX009 (ip), vehicle: saline) is 90 % of control.
On to `CC1=CC(C)(C(Cl)Cl)C=CC1=O` (configuration not stated), for which the T/C was 101 % of control (dose: 75.0 mg/kg/injection, schedule: Q01DX009 (ip), vehicle: saline with Tween-80); 102 % of control under setting [3]; 101 % of control (dose: 150.0 mg/kg/injection, schedule: Q01DX009 (ip), vehicle: saline with Tween-80); 95 % of control under setting [4]; 98 % of control (dose: 300.0 mg/kg/injection, schedule: Q01DX009 (ip), vehicle: saline with Tween-80); 93 % of control under setting [5].
`O=Cc1nccc2c1[nH]c1ccccc12`: the T/C reads like this: under setting [3], 95 % of control; under setting [4], 104 % of control; under setting [5], 100 % of control.
The matching figures for `CC(C)CNC1=CC(=O)c2ccccc2C1=O`: 95 % of control, 98 % of control and 101 % of control.
`O=C(O)CCC(=O)Nc1cccc(Oc2ccc([N+](=O)[O-])cc2[N+](=O)[O-])c1`: the T/C is, setting by setting: (dose: 100.0 mg/kg/injection, schedule: Q01DX009 (ip), vehicle: saline) 94 % of control; (dose: 200.0 mg/kg/injection, schedule: Q01DX009 (ip), vehicle: saline) 94 % of control; (dose: 400.0 mg/kg/injection, schedule: Q01DX009 (ip), vehicle: saline) 100 % of control.
On to `O=c1[nH]c(=O)n(C2OC(CO)C(O)C(O)C2O)cc1F` (configuration not stated), for which the T/C is, setting by setting: (dose: 12.5 mg/kg/injection, schedule: Q01DX005 (ip), vehicle: water) 105 % of control; (dose: 25.0 mg/kg/injection, schedule: Q01DX005 (ip), vehicle: water) 95 % of control; (dose: 50.0 mg/kg/injection, schedule: Q01DX005 (ip), vehicle: water) 101 % of control; (dose: 100.0 mg/kg/injection, schedule: Q01DX005 (ip), vehicle: water) 103 % of control; (dose: 200.0 mg/kg/injection, schedule: Q01DX005 (ip), vehicle: water) 94 % of control.
